Laboratory results taken from patent US8507219B2, “Method of treating inflammation with statins” (MUSC Foundation for Research Development, priority 1997, dated 2013).

Legend:
[1] = tested on: TNF-α production in rat primary astrocytes; assay: LPS-induced TNF-α production (ELISA) in rat primary astrocytes; type: cell-based; details: forskolin 10 μM; 8-Br-cAMP 100 μM; rolipram 20 μM; H-89 2 μM; myristoylated PKI 0.4 μM
Description: (§1) Determination of TNF-α and IL-1β in culture supernatants Cells were stimulated with LPS in serum-free media for 24 h in the presence or absence of forskolin or rolipram, and concentrations of TNF-α and IL-1β were measured in culture supernatants by using high-sensitivity enzyme-linked immunosorbent assay (R&D Systems, USA) according to the manufacturer's instructions.

[2] = tested on: IL-1β production in rat primary astrocytes; assay: LPS-induced IL-1β production (ELISA) in rat primary astrocytes; type: cell-based; details: forskolin 10 μM; 8-Br-cAMP 100 μM; rolipram 20 μM; H-89 2 μM; myristoylated PKI 0.4 μM
Description: as §1

[3] = tested on: TNF-α production in rat primary microglia; assay: LPS-induced TNF-α production (ELISA) in rat primary microglia; type: cell-based; details: 10 μM forskolin or 20 μM rolipram 15 min, then LPS 1.0 μg/ml, 24 h
Description: as §1

[4] = tested on: IL-1β production in rat primary microglia; assay: LPS-induced IL-1β production (ELISA) in rat primary microglia; type: cell-based; details: 10 μM forskolin or 20 μM rolipram 15 min, then LPS 1.0 μg/ml, 24 h
Description: as §1

[5] = tested on: cultured skin fibroblasts of X-ALD; assay: β-oxidation of lignoceric acid in cultured skin fibroblasts of X-ALD; type: cell-based, human
[6] = tested on: cultured skin fibroblasts of X-ALD; assay: VLCFA ratios (C26:0/C22:0, C24:0/C22:0) in X-ALD skin fibroblasts; type: cell-based, human
[7] = inferred from reports in mice and marmoset (Sommer et al., 1995); cited from earlier work
[8] = tested on: iNOS activity in rat primary astrocytes; assay: iNOS activity (arginine to citrulline) in homogenates of treated rat primary astrocytes; type: cell-based; details: Rattus norvegicus, Astrocyte, LPS 1 μg/ml, 24 h
Description: NOS activity was measured directly by production of L-[2,3,4,5-^3H]citrulline from L-[2,3,4,5-^3H] arginine (Feinstein et al., 1994a). […] Assays were carried out for 30 to 40 min and the production of L-[2,3,4,5-^3H] citrulline was linear. The reactions were stopped by addition of 800 μl of ice-cold 20 mM HEPES (pH 5.5) followed by addition of 2 ml of Dowex-50W equilibrated in the same buffer. The samples were then centrifuged and the concentration of L-[^3H]citrulline was determined in the supernatant by liquid scintillation counting.
Dose Dependence of Forskolin Inhibition of the LPS Stimulation of iNOS Astrocytes were incubated with different concentrations of forskolin 15 min before the addition of 1 μg/ml LPS, and after 24 h the iNOS activity was measured as nitrite concentrations in the supernatant and conversion of arginine to citrulline in the cellular homogenates (FIG. 1). The level of nitrite and iNOS activity were inhibited to a similar degree at all the concentrations of forskolin tested. […] . […] This may be due to the fact that PKA was already completely activated in extracts of cells incubated with 10 μM forskolin. The PKA activity increased with the increase in forskolin concentration. The reciprocal relationship of production of NO and iNOS activity with PKA activity supports the conclusion that PKA plays a pivotal role in the regulation of iNOS expression in astrocytes.

PKA = PKA activity (Kemptide phosphorylation) in rat primary astrocytes; type: cell-based; details: optimal concentration of forskolin, LPS 1.0 μg/ml, 1 h; taken as 100%
[9] = tested on: control human skin fibroblasts; assay: β-oxidation of lignoceric acid in control human skin fibroblasts; type: cell-based; details: 72 h; forskolin 4 μM; 1,9 dideoxy forskolin 4 μM; 8-Br-cAMP 50 μM; H-89 1 μM; myristoylated PKI 0.2 μM; Control 565.2 ± 48.3
control skin fibroblasts = assay: VLCFA ratios in control skin fibroblasts; type: cell-based, human; details: two weeks forskolin
Description: Measurement of VLCFA in Fibroblasts Fatty acid methyl ester (FAME) was prepared as described previously by Lepage and Roy (1986) with modifications. Fibroblast cells, suspended in HBSS, were disrupted by sonication to form a homogeneous solution. An aliquot (200 μl) of this solution was transferred to a glass tube and […] heptacosanoic (27:0) acid was added as internal standard and lipids were extracted by Folch partition. Fatty acids were transesterified with acetyl chloride (200 μl) in the presence of methanol and benzene (4:1) for 2 h at 100° C. The solution was cooled down to room temperature followed by addition of 5 ml 6% potassium carbonate solution at ice-cooled temperature. Isolation and purification of FAME were carried out as detailed by Dacremont et al. (1995). […]

COc1ccc(C2CNC(=O)C2)cc1OC1CCCC1 (centres unmarked) [Rolipram]
LPS-stimulated production of TNF-α [1]: inhibited the LPS-stimulated production
LPS-stimulated production of IL-1β [2]: inhibited the LPS-stimulated production
Production of TNF-α [3]: 1.2 ± 0.09 ng/24 h/mg protein
Production of IL-1β [4]: 2.3 ± 0.3 ng/24 h/mg protein
Lignoceric acid β-oxidation ([5]; 72 h, forskolin 4 μM, 8-Br-cAMP 50 μM, rolipram 10 μM, H-89 1 μM, myristoylated PKI 0.2 μM): stimulated lignoceric acid β-oxidation
increase of the oxidation of lignoceric acid ([5]; rolipram, two weeks, X-ALD fibroblasts with mutation or deletion): 50 to 65%
ratios of C26:0/C22:0 and C24:0/C22:0 / level of VLCFA ([6]; about 15 days of treatment): normalized the levels of VLCFA in these cell lines
crossing of the blood brain barrier [7]: does cross the blood brain barrier

C=C[C@@]1(C)CC(=O)[C@]2(O)[C@@]3(C)[C@@H](O)CCC(C)(C)[C@@H]3[C@H](O)[C@H](OC(C)=O)[C@@]2(C)O1 [forskolin]
Production of TNF-α [3]: 0.9 ± 0.1 ng/24 h/mg protein
Production of IL-1β [4]: 1.9 ± 0.2 ng/24 h/mg protein
inhibition at 0.1 µM ([8]; forskolin 0.1 μM (lowest dose with significant effect)): 30%
inhibition at 10 µM ([8]; forskolin 10 μM): ~90%
PKA activity (PKA): 74.4 ± 9.4 pmol/min/mg
Lignoceric acid β-oxidation [9]: 885.3 ± 62.1 pmol/h/mg protein
days of treatment until the ratios of C26:0/C22:0 and C24:0/C22:0 decreased to the normal level ([6]; X-ALD fibroblasts, forskolin 4 μM, lovastatin 5 μM, combination of lovastatin and NaPA): 12 to 15 days
ratio of C26:0/C22:0 (control skin fibroblasts; from 0.04): 0.029
ratio of C24:0/C22:0 (control skin fibroblasts; from 1.23): 1.12
